Laboratory results as given in patent US20060035317A1, “Effect of treatment with 4,5-dihydroxy-2-cyclopenten-1-one (dhcp) on gene expression and quorum-sensing in bacteria” (priority 2002, published 2006).

Assays:
[1] = system: E. coli wild-type strain JM83 (gene expression); experiment: Primer extension analysis of mRNA levels in DHCP-treated vs control cells; format: cell-based; settings: DHCP 250 μM, 8 h
Method: FIG. 1 are gels showing the effect of DHCP on the levels of mRNAs. Total RNA was extracted by the hot phenol method as described in the Materials and Methods section of Example 1, and primer extension analysis was carried out with oligonucleotides corresponding to osmY, dps, rpoS, katG, cysK, tehA, zipA, and ompF. Lanes 1 and 2 in each case represent mRNAs isolated from control (untreated) and DHCP treated cells, respectively.
E. coli wild-type strain JM83 [F^− araΔ(lac-proAB) rpsL(str^r)] (Yanisch-Perron et al., 1985) was grown in Luria broth (LB). V. harveyi strains BB152 and BB170 were a gift from Dr. Bonnie Bassler (Princeton University). These strains were grown in AB medium as described previously (Surette et al., 1999).
E. coli cells grown overnight in LB medium were diluted into fresh LB medium. After the growth reached a Klett unit of 50, DHCP was added (250 μM) and growth was further monitored. After growth reached a Klett unit of 90-100, it was diluted 10-fold into a medium containing the same concentration of DHCP as described previously (Phadtare et al., 2001). The cells were harvested after a total of 8 h of incubation with DHCP. […] The total RNA was extracted by the hot phenol method described previously (Sarmientos et al., 1983). It was further purified by RNeasy Minikit (Qiagen) and was then treated with DNase I followed by phenol-chloroform treatment and ethanol precipitation. It was quantified by measuring absorbance at 260 nm. The purity of RNA was confirmed by agarose gel electrophoresis.
The primers used for detection of the respective mRNAs were: Primer 750077, 5′-[…]-3′ (SEQ ID NO:1), that corresponds to the sequence from the 15th to the 8th codon of osmY (Yim et al., 1992); primer 750078, 5′-[…]-3′ (SEQ ID NO:2), that corresponds to the sequence from the 16th to the 9th codon of dps (Altuvia et al., 1994); Primer 979747, 5′-[…]-3′ (SEQ ID NO:3), that corresponds to the region from the 6th codon of rpoS (Takayanagi et al., 1994); primer 956660, 5′-AGT […]-3′ (SEQ ID NO:4), that corresponds to the region from 13th to the 6th codon of katG (Triggs-Raine et al., 1998); primer 3969805, 5′-[…]-3′ (SEQ ID NO:5), that corresponds to the region from 20th to the 13th codon of cysK (Byrne et al., 1988); primer 3969806, 5′-[…]-3′ (SEQ ID NO:6), that corresponds to the region from 13th to the 6th codoh of tehA (Walter et al., 1991); primer 3969807, 5′[…]-3′ (SEQ ID NO:7), that corresponds to the region from 10th to the 3rd codon of zipA (Hale et al., 1997); and primer 7018 5′-[…]-3′ (SEQ ID NO:8), that includes the region encompassing from the first codon of ompF (accession numbers, J01655, M10311 and M10312). The primers were labeled with [γ-^32P] ATP (Du-Pont-New England Nuclear] by using T4 polynucleotide kinase (Gibco BRL). Primer extension was carried out with 5 μg of RNA at 42° C. for 1 h in a final reaction volume of 10 μl, with 50 mM Tris-HCl (pH 8.5), 8 mM MgCl2, 30 mM KCl, 1 mM dithiothreitol, 0.4 pmol of ^32P-labeled primer, 0.5 mM each of the dNTPs, 10 U RNase inhibitor (Boehringer Mannheim) and 6.25 U of reverse transcriptase (Boehringer Mannheim). The products were analyzed on a 6% polyacrylamide gel under denaturing conditions. Quantitation of primer extension products was carried out by direct radioactive measurements.

[2] = system: AI-2 activity, V. harveyi reporter strain BB170; experiment: AI-2 assay (luminescence of reporter strain); format: cell-based
Method: FIGS. 2A and 2B are graphs showing DHCP inhibits AI-2 activity. The AI-2 activity assay was carried out as described in Materials and Methods section of Example 1. The luminescence seen with V. harveyi BB152 was assumed as 100% and the other activities were expressed as relative %. In FIG. 2A, the lanes are as follows: Sterile AB medium, lane 1; V. harveyi BB152 culture fluid, lane 2; DHCP (250 μM), lane 3; DHCP (250 μM) plus V. harveyi BB152 culture fluid, lane 4. In FIG. 2B, DHCP was added to the reaction mixtures after maximum luminescence was generated by AI-2, at a concentration of 250 μM (closed circles) and 100 μM (open squares). The corresponding control activity of AI-2 without DHCP addition is also shown (open triangles). The light production was monitored at various time points with a liquid scintillation counter.
The AI-2 assays using V. harveyi reporter strain (BB170) were carried out as described by Surette and Bassler (Surette et al., 1999). Cell-free culture fluid from V. harveyi BB152 strain was used as a positive control. Sterile AB medium was used a negative control. Briefly, the V. harveyi BB170 strain was grown overnight with aeration at 30° C. in the AB medium and the cells were then diluted 1:5000 in the fresh medium. The diluted culture (90 μl) was added in the assay mixture containing 10 μl of AB medium or cell-free culture fluid of V. harveyi BB152/DHCP (100-250 μM). To check the effect of DHCP on the light production by AI-2, it was added to the reaction mixture after the maximum luminescence was achieved. The light production was monitored with a liquid scintillation counter.
In the present study, the AI-2 assay designed by Suretter and Bassler (Surette et al., 1999) was used. The V. harveyi BB170 reporter strain has the quorum-sensing phenotype, sensor 1^−, sensor 2^+. It induces lux expression through the signaling system 2 detector. Addition of 10% cell-free culture fluid prepared from V. harveyi BB152 strain (containing the system 2 autoinducer) stimulates luminescence expression in the reporter strain. […] The laboratory of the present inventors examined if DHCP inhibits the activity of AI-2. […] Sterile AB medium was used as a negative control (lane 1). […] It has been reported that the AI-2 gave maximum luminescence at approximately 10 μM concentration (Schauder et al., 2001). It should be noted that the DHCP concentration used in the present assay was in excess of the AI-2 concentration. It was also tested if DHCP can inhibit AI-2 activity when it is added after maximum luminescence is generated by AI-2. […] When it was added at the concentration of 100 μM (open squares), the AI-2 activity was reduced to zero after 40 min. The corresponding control activity without DHCP addition (open triangles) was completely stable.

For `O=C1C=CC(O)C1O` (stereo not drawn) [DHCP, 4,5-dihydroxy-2-cyclopenten-1-one], the “Primer extension: ratio of mRNA level DHCP-treated to control” value (from here on “Primer extension: ratio”) ([1]; gene cysK) was 18.00, the “Primer extension: ratio” value ([1]; gene dps) was 12.00 and the “Primer extension: ratio” value ([1]; gene katG) was 9.00. The “Primer extension: ratio” value ([1]; gene ompF) was 0.06, the “Primer extension: ratio” value ([1]; gene osmY) was 15.00 and the “Primer extension: ratio” value ([1]; gene rpoS) was 4.00. The “Primer extension: ratio” value ([1]; gene tehA) was 5.00, the “Primer extension: ratio” value ([1]; gene zipA) was 5.00 and the “Time until AI-2 activity was reduced to zero” value ([2]; DHCP 100 μM added after maximum luminescence generated by AI-2, FIG. 2B) was 40 min. The “Time until AI-2 activity was reduced to zero” value ([2]; DHCP 250 μM added after maximum luminescence generated by AI-2, FIG. 2B) was no more than 8 min, the “Inhibition of AI-2 activity” value ([2]; DHCP 250 μM added immediately before AI-2 containing cell-free extract of V. harveyi BB152, FIG. 2A lane 4) was “completely inhibited” and the “AI-2 activity (luminescence) of DHCP itself” value ([2]; DHCP 250 μM alone, FIG. 2A lane 3) was “did not show AI-2 activity”.
